Molecules are shown by their SMILES. Bounds are passed on as bounds.

The assay concerns TCF/LEF reporter in HEK293-pBARL cells. The assay can be described thus: cells. As to conditions: Homo sapiens, HEK293, read-out: TCF/LEF EC50 (μM).
Procedure: HEK293-pBARL cells were derived from HEK293 cells and they stably expressed a firefly-luciferase reporter gene driven by a promoter containing 12 copies of TCF/LEF binding sequences. These cells were maintained in DMEM and supplemented with 10% FBS and 1% penicillin-streptomycin (Invitrogen). Reporter gene assays were conducted in anti-biotic free media. […] These cells also contained a renilla-luciferase reporter gene driven by the ubiquitous EF1α promoter as a control. HEK293-pBarl reporter cell lines were seeded into 384-well culture plates (Corning) at 6000 cells/well. 24 hours after plating, cells were treated overnight with relevant compounds and assayed using DualGlo assay kit (Promega). Luminescent intensities were read by EnVision (PerkinElmer, Waltham, Mass.). Firefly luciferase intensity is normalized by renilla luciferase intensity.
Cells were cultured in 384 well plates to appropriate density (40 μl total plating volume). 24 hours after plating, cells were treated with 100 nl compounds. 24 hours after incubation with compounds (48 hours after plating), assay reagents were prepared by mixing Luciferase Assay solution with Luciferase substrate and Stop & Glo solution to Stop & Glo substrate (extra reagents can be aliquoted and frozen for future use and are stable for at least one freeze/thaw cycle). […] The plate was spun down and 10 minutes were allowed for signal stabilization. Luciferase signal on the Perkin Elmer EnVision using the following parameters: Distance between plate & detector (mm)=0.2; Measurement time(s)=0.1; Glow (CT2) correction factor=0. Once the initial data is secure, a volume of Stop & Glo was added equal to each well equal to the volume of Luciferase reagent added above (If 10 μl Luciferase Reagent was added, 10 μl Stop & Glo was also added). The plate was spun down and 10 minutes were allowed for signal stabilization. The plate was read on the EnVision using the same parameters detailed above.
As for `Cc1[nH]nc2c1C(c1cccs1)C1=C(CC(C)(C)CC1=O)N2` (racemic) [Compound 5, 3,7,7-trimethyl-4-(thiophen-2-yl)-6,7,8,9-tetrahydro-1H-pyrazolo[3,4-b]quinolin-5(4H)-one], the EC50 was more than 25 µM.
For the compound `Cc1[nH]nc2c1[C@H](c1ccccc1Br)C1=C(CC(C)(C)CC1=O)N2` (racemic) [Compound 80, 4-(2-bromophenyl)-3,7,7-trimethyl-6,7,8,9-tetrahydro-2H-pyrazolo[3,4-b]quinolin-5(4H)-one], the EC50 was 5.63 µM.
Regarding `Cc1[nH]nc2c1C(c1ccsc1)C1=C(CC(C)(C)CC1=O)N2` (stereo not drawn) [Compound 8, 3,7,7-trimethyl-4-(thiophen-3-yl)-6,7,8,9-tetrahydro-1H-pyrazolo[3,4-b]quinolin-5(4H)-one], the EC50 was more than 25 µM.
With `Cc1[nH]nc2c1C(c1ccc(Cl)s1)C1=C(CC(C)(C)CC1=O)N2` (stereo not drawn) [Compound 9, 4-(5-chlorothiophen-2-yl)-3,7,7-trimethyl-6,7,8,9-tetrahydro-1H-pyrazolo[3,4-b]quinolin-5(4H)-one], the EC50 was more than 25 µM.
Take `Cc1[nH]nc2c1C(c1ccccc1F)C1=C(CC(C)(C)CC1=O)N2` (stereo not drawn) [Compound 10, 4-(2-fluorophenyl)-3,7,7-trimethyl-6,7,8,9-tetrahydro-1H-pyrazolo[3,4-b]quinolin-5(4H)-one]: the EC50 came to 12.7 µM.
`Cc1[nH]nc2c1C(c1cccc(F)c1)C1=C(CC(C)(C)CC1=O)N2` (stereo not drawn) [Compound 11, 4-(3-fluorophenyl)-3,7,7-trimethyl-6,7,8,9-tetrahydro-1H-pyrazolo[3,4-b]quinolin-5(4H)-one]: the EC50 was more than 25 µM.
In the case of `Cc1[nH]nc2c1C(c1ccc(F)cc1)C1=C(CC(C)(C)CC1=O)N2` (stereo not drawn) [Compound 12, 4-(4-fluorophenyl)-3,7,7-trimethyl-6,7,8,9-tetrahydro-1H-pyrazolo[3,4-b]quinolin-5(4H)-one], the EC50 was more than 25 µM.
On to `Cc1[nH]nc2c1C(c1cccc(Cl)c1)C1=C(CC(C)(C)CC1=O)N2` (stereo not drawn) [Compound 14, 4-(3-chlorophenyl)-3,7,7-trimethyl-6,7,8,9-tetrahydro-1H-pyrazolo[3,4-b]quinolin-5(4H)-one], for which the EC50 is 31.3 µM.
For `Cc1[nH]nc2c1C(c1ccc(Cl)cc1)C1=C(CC(C)(C)CC1=O)N2` (stereo not drawn) [Compound 15, 4-(4-chlorophenyl)-3,7,7-trimethyl-6,7,8,9-tetrahydro-1H-pyrazolo[3,4-b]quinolin-5(4H)-one], the EC50 was more than 25 µM.
For the compound `Cc1ccc(C2C3=C(CC(C)(C)CC3=O)Nc3n[nH]c(C)c32)cc1` (stereo not drawn) [Compound 19, 3,7,7-trimethyl-4-(p-tolyl)-6,7,8,9-tetrahydro-1H-pyrazolo[3,4-b]quinolin-5(4H)-one], the EC50 is more than 25 µM.
For the compound `COc1cccc(C2C3=C(CC(C)(C)CC3=O)Nc3n[nH]c(C)c32)c1` (stereo not drawn) [Compound 23, 4-(3-methoxyphenyl)-3,7,7-trimethyl-6,7,8,9-tetrahydro-1H-pyrazolo[3,4-b]quinolin-5(4H)-one], the EC50 is more than 25 µM.
Take `COc1ccc(C2C3=C(CC(C)(C)CC3=O)Nc3n[nH]c(C)c32)cc1` (stereo not drawn) [Compound 24, 4-(4-methoxyphenyl)-3,7,7-trimethyl-6,7,8,9-tetrahydro-1H-pyrazolo[3,4-b]quinolin-5(4H)-one]: the EC50 was more than 25 µM.
Regarding `Cc1[nH]nc2c1C(c1ccc3c(c1)OCO3)C1=C(CC(C)(C)CC1=O)N2` (stereo not drawn) [Compound 26, 4-(benzo[d][1,3]dioxol-5-yl)-3,7,7-trimethyl-6,7,8,9-tetrahydro-1H-pyrazolo[3,4-b]quinolin-5(4H)-one], the EC50 was more than 25 µM.
To `Cc1[nH]nc2c1[C@@H](c1ccccc1C#N)C1=C(CC(C)(C)CC1=O)N2` [Compound 32, 2-(3,7,7-trimethyl-5-oxo-4,5,6,7,8,9-hexahydro-2H-pyrazolo[3,4-b]quinolin-4-yl)benzonitrile] belongs 23.4 µM.
To `Cc1[nH]nc2c1C(c1ccc(C#N)cc1)C1=C(CC(C)(C)CC1=O)N2` (stereo not drawn) [Compound 34, 4-(3,7,7-trimethyl-5-oxo-4,5,6,7,8,9-hexahydro-2H-pyrazolo[3,4-b]quinolin-4-yl)benzonitrile] belongs more than 25 µM.

The values are drawn from patent US10137122B2, “Kinase inhibitors and methods of use thereof” (priority 2012, dated 2018).
